These results are taken from US20260234630A1, “Methods for Treating Multiple Myeloma” (Celgene Corporation, priority 2022, published 2026).

The subject of the assay is IRF4 and c-Myc. The experiment in a line: Western blot of IRF4 and c-Myc in MM cells. It counts as cell-based. The following applies: MM1.S, DF15 and U266 cells; 1 μM POM, 3 days. As for the experimental part: FIG. 1A-1F. Down regulation of UHRF1 transcription by IMiDs correlates with drug sensitivity of multiple myeloma. (1A) Volcano plot of protein expression changes determined by mass spectrometry in H929 cells at 24 hr of treatment with CC-220 (0.1 μM) or DMSO control. X axis, Log2fold change (FC); Y axis, significance,-log 10 [p-value]. […] (1B) Volcano plot of gene expression changes determined by Affymetrix microarray in H929 cells treated with POM (1 μM) or DMSO for 24 hr. X axis, Log2fold change (FC); Y axis, significance,-log 10 [p-value], n=2 technical replicates). […] (1C) Western blot analysis protein expression of UHRF1, Ikaros, Aiolos and ZFP91 in H929 cells treated with 1 μM POM for indicated time. (1D) qRT-PCR analysis of UHRF1 gene expression levels in cells as in (1C). Error bars represent the SEM from duplicate measurements. (1E) Western blot analysis protein expression of UHRF1 and indicated proteins in MM cells treated with DMSO (−) or 1 μM POM (+) for 3 days. GAPDH serves as a loading control. […]
Cells were lysed with cell lysis buffer (50 mM TrisHCl pH7.4, 250 mM NaCl, 0.5% Triton X100, 10% glycerol) supplemented with protease inhibitor cocktail. […] The protein concentration was measured by a Bradford Protein Assay (Bio-Rad). […] Proteins of interested were detected incubation with primary antibodies listed below at 4° C. overnight. […]
On the technique in general: A western blot detects proteins with antibodies after separation by electrophoresis.

Structures are written as SMILES.

Consider `Nc1cccc2c1C(=O)N(C1CCC(=O)NC1=O)C2=O` (stereo not shown) [POM, pomalidomide], for which the “IRF4 and c-Myc expression” value is “downregulated”.
